Results reported in PMC7151078, “A Novel NMDA Receptor Antagonist Protects against Cognitive Decline Presented by Senescent Mice” (Pharmaceutics, 2020).

How the values were obtained:
CYP1A2 = biological target: T1, CYP1A2 (Homo sapiens, UniProt P05177); assay: Cytochrome inhibition, fluorescent detection (CEC substrate); assay type: in vitro ADME; conditions: recombinant human CYP1A2
T1 construct: host or cells: insect cell microsomes
T1 sequence (P05177 1-516): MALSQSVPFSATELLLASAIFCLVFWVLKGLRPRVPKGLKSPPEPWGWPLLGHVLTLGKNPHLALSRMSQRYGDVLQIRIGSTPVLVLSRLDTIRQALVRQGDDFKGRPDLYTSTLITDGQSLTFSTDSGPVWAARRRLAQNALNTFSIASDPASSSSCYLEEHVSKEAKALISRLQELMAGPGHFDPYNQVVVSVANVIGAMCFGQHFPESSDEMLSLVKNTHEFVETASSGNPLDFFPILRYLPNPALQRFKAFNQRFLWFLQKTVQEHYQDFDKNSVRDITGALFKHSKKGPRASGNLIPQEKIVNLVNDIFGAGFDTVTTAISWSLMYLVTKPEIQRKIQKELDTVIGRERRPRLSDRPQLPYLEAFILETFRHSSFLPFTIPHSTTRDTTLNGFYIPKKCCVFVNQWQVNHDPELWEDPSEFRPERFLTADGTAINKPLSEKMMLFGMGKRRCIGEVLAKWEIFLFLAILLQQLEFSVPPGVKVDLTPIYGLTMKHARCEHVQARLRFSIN
Protocol: (§1) To screen the inhibition potential of the compounds, recombinant human cytochrome P450 enzymes (CYP1A2, CYP2C9, CYP2C19, CYP2D6, and CYP3A4) and probe substrates were used with the fluorescent detection method. Incubations were conducted in 200-µL volume 96 well microtiter plates (COSTAR 3915). Addition of cofactor-buffer mixture (KH2PO4 buffer, 1.3 mM NADP+, 3.3 mM MgCl2, 3.3 mM Glucose-6-phosphate and 0.4 U/mL Glucose-6-phosphate Dehydrogenase), supersomes control, standard inhibitors (Furafyline, Tranylzypromine, Ketoconazole, Sulfaphenazole, and Quinidine; from Sigma Aldrich), and test compounds to plates were carried out using a a liquid handling station (Zephyr Caliper). The plate was then pre-incubated at 37 °C for 5 min, and the reaction initiated by the addition of pre-warmed enzyme/substrate (E/S) mix. […] Fluorescence per well was measured using a fluorescence plate reader (Tecan M1000 pro), and the percentage of inhibition was calculated.

CYP2C19 = biological target: T2, CYP2C19 (Homo sapiens, UniProt P33261); assay: as above; assay type: in vitro ADME; conditions: recombinant human CYP2C19
T2 construct: host or cells: insect cell microsomes
Protocol: as §1

SAMR1 and SAMP8 mice = assay: Hippocampal protein levels by Western blotting; assay type: in vivo, mouse; conditions: hippocampus
Protocol: Male SAMR1 and SAMP8 mice (n = 41) with 20-weeks-old were used to carry out cognitive and molecular analysis. The animals were randomly divided into four groups: SAMR1 control (SR1 Ct) group (n = 11), SAMP8 control (SP8 Ct) group (n = 8), SAMR1 treated with RL-208 (SR1 RL-208 (5 mg/Kg)) group (n = 10) and SAMP8 treated with RL-208 (SP8 RL-208 (5 mg/Kg)) group (n = 12). Animals had free access to food and water, under standard temperature conditions (22±2 °C) and 12h:12h light-dark cycles (300 lux/0 lux). RL-208, (3,4,8,9-tetramethyltetracyclo[4.4.0.0^3,9.0^4,8]dec-1-yl)-methylamine hydrochloride, (5 mg/kg/day) was administered through drinking water for four weeks before starting the cognitive test. RL-208 was administered up to euthanasia (Figure 1A). Water consumption was controlled each week for each cage and strain. Afterwards, RL-208 concentration was adjusted accordingly to reach the optimal dose for each cage. Three days after the behavioural and cognitive tests, mice were euthanized by cervical dislocation. Brains were immediately removed from the skull. The hippocampus and cortex were then isolated and frozen in powdered dry ice. They were maintained at −80 °C for further use. Tissue samples were homogenized in lysis buffer containing phosphatase and protease inhibitors (Cocktail II, Sigma). Total protein levels were obtained, and protein concentration was determined by the method of Bradford. For Western blotting (WB), aliquots of 15 μg of hippocampal protein extraction per sample were used. Protein samples were separated by Sodium dodecyl sulphate-Polyacrylamide gel electrophoresis (SDS-PAGE) (8–20%) and transferred onto Polyvinylidene difluoride (PVDF) membranes (Millipore). Afterwards, membranes were blocked in 5% non-fat milk in Tris-buffered saline (TBS) solution containing 0.1% Tween 20 TBS (TBS-T) for 1 hour at room temperature, followed by overnight incubation at a 4 °C with the primary antibodies listed in Table S1. Then, membranes were washed and incubated with secondary antibodies for 1 hour at room temperature. Immunoreactive proteins were viewed with the chemiluminescence-based detection kit, following the manufacturer’s protocol (ECL Kit, Millipore), and digital images were acquired using ChemiDoc XRS+ System (BioRad). Semi-quantitative analyses were performed using ImageLab software (BioRad), and results were expressed in arbitrary units (AU), considering control protein levels as 100%. Protein loading was routinely monitored by immunodetection of Glyceraldehyde-3-phosphate dehydrogenase (GAPDH).

T2 sequence (P33261 whole entry): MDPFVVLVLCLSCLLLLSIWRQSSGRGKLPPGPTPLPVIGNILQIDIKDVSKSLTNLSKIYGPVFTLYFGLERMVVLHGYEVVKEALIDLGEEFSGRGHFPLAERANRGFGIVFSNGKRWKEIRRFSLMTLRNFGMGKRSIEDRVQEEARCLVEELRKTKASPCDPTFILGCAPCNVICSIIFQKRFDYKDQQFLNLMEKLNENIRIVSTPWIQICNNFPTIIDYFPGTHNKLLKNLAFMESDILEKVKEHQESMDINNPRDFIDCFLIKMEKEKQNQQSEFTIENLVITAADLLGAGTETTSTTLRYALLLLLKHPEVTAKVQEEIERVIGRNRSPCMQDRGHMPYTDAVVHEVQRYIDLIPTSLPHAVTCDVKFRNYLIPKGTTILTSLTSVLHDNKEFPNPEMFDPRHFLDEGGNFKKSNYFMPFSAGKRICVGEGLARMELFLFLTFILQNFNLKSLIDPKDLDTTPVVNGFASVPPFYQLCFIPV

## CC12CC3CC1(C)C1(C)CC3(CN)CC21C.Cl [RL-208, (3,4,8,9-tetramethyltetracyclo [4.4.0.0^3,9.0^4,8]dec-1-yl)methylamine hydrochloride]
CYP1A2
  CYP1A2 inhibition: 5 ± 2%
CYP2C19
  CYP2C19 inhibition: 23 ± 1%
SAMR1 and SAMP8 mice; RL-208 treated mice
  PSD95 protein levels: augmented but did not reach significance in SP8 mice
  Synaptophysin (SYN) protein levels: significant increase
SAMR1 and SAMP8 mice; SAMP8
  ADAM10 protein levels: prevented the loss
SAMR1 and SAMP8 mice; SP8 RL-208
  SNAP25 protein levels: significant-high
SAMR1 and SAMP8 mice; SP8 RL-208 vs control group
  CDK5 activation (p-CDK5/CDK5 ratio): significantly reduced
  p25/p35 ratio: significantly reduced
SAMR1 and SAMP8 mice; SP8 mice, not in SR1
  GPX1 protein levels: increased, in a significant way
  SOD1 protein levels: increased, in a significant way
SAMR1 and SAMP8 mice; SP8 strain, not in SR1
  120BPD (Spectrin breakdown product): reduced
  Calpain-1 protein levels: reduced
  Caspase-3 protein levels: reduced
SAMR1 and SAMP8 mice; both SR1 and SP8
  TrkB-FL protein levels: increased significantly
SAMR1 and SAMP8 mice; both strains
  p-NMDAR (Tyr1472) protein levels: increased in a significant way
SAMR1 and SAMP8 mice; both treated mice groups
  Tau phosphorylation (Ser396): significant reduction
SAMR1 and SAMP8 mice; neither in SR1 nor in SP8
  NMDAR2A protein levels: did not produce significant differences
SAMR1 and SAMP8 mice; treated mice
  TrkB-ICD protein levels: reduced
